{
  "source": "patent US20240294476A1",
  "about": "“CRYSTAL FORM OF QUINOLINE COMPOUND AND PROCESS FOR ITS PRODUCTION” (NISSAN CHEMICAL CORPORATION, priority 2003, published 2024)",
  "key": {"[1]": {"experiment": "Crystallinity by powder X-ray diffraction after drying", "type": "physicochemical", "settings": "dried in a usual manner, water content at most 4%", "from_the_text": "(§1) However, in the conventional method for producing pitavastatin calcium, there has been no disclosure relating to the water content or the crystal form."}, "[2]": {"experiment": "Stability data of drug substance (influence of water content), storage at 40° C.", "type": "physicochemical", "from_the_text": "as §1"}, "[3]": {"settings": "40° C. air tight, Initial stage"}},
  "data": [
    {"smiles": "O=C(O)C[C@H](O)C[C@H](O)/C=C/c1c(C2CC2)nc2ccccc2c1-c1ccc(F)cc1", "note": "[Pitavastatin calcium, monocalcium bis[(3R,5S,6E)-7-(2-cyclopropyl-4-(4-fluorophenyl)-3-quinolyl)-3,5-dihydroxy-6-heptenoate]]", "values": [
      {"measurement": "crystallinity (powder X-ray diffraction)", "setting": "[1]", "result": "decrease to a state close to an amorphous state"},
      {"measurement": "Analogous substance (%)", "setting": "[2]; 40° C. air tight, 30 Days", "result": 0.208, "unit": "%"},
      {"measurement": "Pitavastatin calcium (%)", "setting": "[2]; 40° C. air tight, 30 Days", "result": 99.42, "unit": "%"},
      {"measurement": "Water content (%)", "setting": "[2]; 40° C. air tight, 30 Days", "result": 7.85, "unit": "%"},
      {"measurement": "Analogous substance (%)", "setting": "[2]; 40° C. air tight, 60 Days", "result": 0.189, "unit": "%"},
      {"measurement": "Pitavastatin calcium (%)", "setting": "[2]; 40° C. air tight, 60 Days", "result": 99.79, "unit": "%"},
      {"measurement": "Water content (%)", "setting": "[2]; 40° C. air tight, 60 Days", "result": 7.88, "unit": "%"},
      {"measurement": "Analogous substance (%)", "setting": "[2]; 40° C. air tight, 90 Days", "result": 0.211, "unit": "%"},
      {"measurement": "Pitavastatin calcium (%)", "setting": "[2]; 40° C. air tight, 90 Days", "result": 99.64, "unit": "%"},
      {"measurement": "Water content (%)", "setting": "[2]; 40° C. air tight, 90 Days", "result": 7.81, "unit": "%"},
      {"measurement": "Analogous substance (%)", "setting": "[2]; [3]", "result": 0.179, "unit": "%"},
      {"measurement": "Pitavastatin calcium (%)", "setting": "[2]; [3]", "result": 99.38, "unit": "%"},
      {"measurement": "Water content (%)", "setting": "[2]; [3]", "result": 7.89, "unit": "%"},
      {"measurement": "Analogous substance (%)", "setting": "[2]; 40° C. open air, 30 Days", "result": 0.742, "unit": "%"},
      {"measurement": "Pitavastatin calcium (%)", "setting": "[2]; 40° C. open air, 30 Days", "result": 99.26, "unit": "%"},
      {"measurement": "Water content (%)", "setting": "[2]; 40° C. open air, 30 Days", "result": 2.45, "unit": "%"},
      {"measurement": "Analogous substance (%)", "setting": "[2]; 40° C. open air, 60 Days", "result": 1.347, "unit": "%"},
      {"measurement": "Pitavastatin calcium (%)", "setting": "[2]; 40° C. open air, 60 Days", "result": 97.19, "unit": "%"},
      {"measurement": "Water content (%)", "setting": "[2]; 40° C. open air, 60 Days", "result": 1.99, "unit": "%"},
      {"measurement": "Analogous substance (%)", "setting": "[2]; 40° C. open air, 90 Days", "result": 2.099, "unit": "%"},
      {"measurement": "Pitavastatin calcium (%)", "setting": "[2]; 40° C. open air, 90 Days", "result": 96.49, "unit": "%"},
      {"measurement": "Water content (%)", "setting": "[2]; 40° C. open air, 90 Days", "result": 1.77, "unit": "%"},
      {"measurement": "Analogous substance (%)", "setting": "[2]; 40° C. open air, Initial stage", "result": 0.179, "unit": "%"},
      {"measurement": "Pitavastatin calcium (%)", "setting": "[2]; 40° C. open air, Initial stage", "result": 99.38, "unit": "%"},
      {"measurement": "Water content (%)", "setting": "[2]; 40° C. open air, Initial stage", "result": 7.89, "unit": "%"},
      {"measurement": "stability during the storage", "setting": "[2]; pitavastatin calcium which has become amorphous", "result": "very poor stability"}
    ]}
  ]
}
